The text below walks through data of PMC10198183 (Frontiers in drug discovery, 2022).

The test system of series [1] is C. albicans. The series is described as follows: Broth microdilution susceptibility test (CLSI M27-A4), C. albicans. The series is classed as cell-based. The note with it: RPMI 1640, 30 °C, 24–48 h, mean of triplicate; for MIC: read-out: MIC75 C. albicans. How it is done:
(§1) Broth microdilution susceptibility test: The minimum inhibitory concentrations (MIC75) were determined by the broth microdilution method according to the Clinical and Laboratory Standards Institute (CLSI) M27-A4 standard ([CLSI, 2017])). Briefly, a suspension of C. albicans or C. glabrata culture (~0.5–2.5 × 10^3 cells/ml) was resuspended in RPMI 1640 media (Fisher Catalog number 11875093). The resuspended culture was further incubated with 100 μl of two-fold serially diluted test compounds (100–0.8 μM and 1.0 μM to 7 nM) at 30 °C for 24–48 h. Positive and negative control (wells without antifungal agents and wells without yeast) were conducted. Increased optical density (OD) corresponds to the Candida growth and was quantified by comparison with untreated Candida control samples. The MIC75 of test compounds was determined visually and spectrophotometrically (OD600) after 24–48 h. Experiments were run in triplicate, and data was reported as a mean.

The test system of series [2] is C. glabrata. The series is described as follows: Broth microdilution susceptibility test (CLSI M27-A4), C. glabrata. The series is classed as cell-based. The following applies: RPMI 1640, 30 °C, 24–48 h, mean of triplicate; for MIC: read-out: MIC75 C. glabrata. Here is the method: as §1
Series [3] has as its target human Cyp3A4 (Homo sapiens, UniProt P08684). The note with it: for IC50: read-out: CYP 3A4 IC50, human Cyp3A4 supersomes, 2 μM midazolam, 30 min at 37°C.

Values after ≈ are worked out from the molar mass of the structure shown. Read-outs that look alike come from different tables or passages of the source.

The IC50 is the concentration at which inhibition is half-maximal.

Chain of human Cyp3A4 (P08684 2-503 limits assumed): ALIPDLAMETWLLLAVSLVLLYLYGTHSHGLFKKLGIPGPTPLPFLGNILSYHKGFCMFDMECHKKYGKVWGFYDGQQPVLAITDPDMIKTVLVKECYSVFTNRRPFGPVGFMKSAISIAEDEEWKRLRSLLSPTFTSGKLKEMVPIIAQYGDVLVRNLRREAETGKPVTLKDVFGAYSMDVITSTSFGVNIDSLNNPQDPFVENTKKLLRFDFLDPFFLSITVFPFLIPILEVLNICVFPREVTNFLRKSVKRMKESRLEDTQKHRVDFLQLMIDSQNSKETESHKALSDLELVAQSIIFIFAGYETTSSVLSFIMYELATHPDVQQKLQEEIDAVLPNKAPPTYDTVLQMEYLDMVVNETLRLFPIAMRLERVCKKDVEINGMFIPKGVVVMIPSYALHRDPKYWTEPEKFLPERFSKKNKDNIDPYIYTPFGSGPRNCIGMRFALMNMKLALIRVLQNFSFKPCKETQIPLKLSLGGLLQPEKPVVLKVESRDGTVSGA

For the compound `CCS(=O)(=O)N1CCN(c2ccc(OC[C@@H]3CO[C@@](Cn4ccnc4)(c4ccc(Cl)cc4Cl)O3)cc2)CC1` [Entry 3b], the MIC in series [1] is given as 125 nM (≈ 0.0727 µg/mL); in series [2], 500 nM (≈ 0.291 µg/mL).
In the case of `CS(=O)(=O)N1CCN(c2ccc(OC[C@@H]3CO[C@@](Cn4ccnc4)(c4ccc(Cl)cc4Cl)O3)cc2)CC1` [Entry 3a], the MIC in series [1] worked out at 125 nM (≈ 0.0709 µg/mL).
Regarding `O=S(=O)(N1CCN(c2ccc(OC[C@@H]3CO[C@@](Cn4ccnc4)(c4ccc(Cl)cc4Cl)O3)cc2)CC1)C(F)(F)F` [Entry 3i], the MIC in series [1] worked out at 800 nM (≈ 0.497 µg/mL); in series [2], 1600 nM (≈ 0.994 µg/mL).
Regarding `O=S(=O)(CC(F)F)N1CCN(c2ccc(OC[C@@H]3CO[C@@](Cn4ccnc4)(c4ccc(Cl)cc4Cl)O3)cc2)CC1` [Entry 3l], the MIC in series [1] came to 62 nM (≈ 0.0383 µg/mL); in series [2], 250 nM (≈ 0.154 µg/mL). In series [3] (3l versus 2), the “improvement in selectivity (Cyp3A4 versus C. albicans) relative to (±)-Ketoconazole (2)” value was 5 fold. The “window between Cyp3A4 inhibition and activity against C. albicans” value in series [3] (Cyp3A4 IC50 versus C. albicans MIC75) was 2.6 fold. Moreover, in series [3], the concentration for half-maximal inhibition (IC50) is 162 nM.
In the case of `CC(C)S(=O)(=O)N1CCN(c2ccc(OC[C@@H]3CO[C@@](Cn4ccnc4)(c4ccc(Cl)cc4Cl)O3)cc2)CC1` [Entry 3d], in series [1], the “MIC75 C. albicans” value is “complete loss of in vitro antifungal activity and N.E”. Also, the “MIC75 C. glabrata” value in series [2] is “complete loss of in vitro antifungal activity and N.E”.
With `CC(=O)N1CCN(c2ccc(OC[C@@H]3CO[C@@](Cn4ccnc4)(c4ccc(Cl)cc4Cl)O3)cc2)CC1` [Entry 4, (2S, 4R)-Ketoconazole, reference compound], the MIC in series [1] (Candida albicans) was 125 nM (≈ 0.0664 µg/mL); in series [2] (Nakaseomyces glabratus), 500 nM (≈ 0.266 µg/mL).
As for `O=S(=O)(C1CC1)N1CCN(c2ccc(OCC3COC(Cn4ccnc4)(c4ccc(Cl)cc4Cl)O3)cc2)CC1` (stereo not shown) [Entry 3e], the MIC in series [1] and in series [2] was 800 nM (≈ 0.475 µg/mL) each time.
As for `CC(=O)N1CCN(c2ccc(OC[C@H]3CO[C@](Cn4ccnc4)(c4ccc(Cl)cc4Cl)O3)cc2)CC1` (racemic) [Entry 2, (±)-Ketoconazole, reference compound], the MIC was determined as 250 nM (≈ 0.133 µg/mL) in series [1] (Candida albicans), 250 nM (≈ 0.133 µg/mL) in series [2] (Nakaseomyces glabratus) and 500 nM (≈ 0.266 µg/mL) in series [2].
Take `O=S(=O)(CC(F)(F)F)N1CCN(c2ccc(OC[C@@H]3CO[C@@](Cn4ccnc4)(c4ccc(Cl)cc4Cl)O3)cc2)CC1` [Entry 3j]: the MIC in series [1] came out at 1600 nM (≈ 1.02 µg/mL); in series [2], 800 nM (≈ 0.508 µg/mL). Besides, the IC50 in series [3] was 450 nM.
Turning to `O=S(=O)(CCC(F)(F)F)N1CCN(c2ccc(OC[C@@H]3CO[C@@](Cn4ccnc4)(c4ccc(Cl)cc4Cl)O3)cc2)CC1` [Entry 3k], the MIC in series [1] was determined as 1600 nM (≈ 1.04 µg/mL). In addition, the “MIC75 C. glabrata” value in series [2] was “no effect and N.E”. In addition, the IC50 in series [3] was found to be 249 nM.
Regarding `CS(=O)(=O)CS(=O)(=O)N1CCN(c2ccc(OC[C@@H]3CO[C@@](Cn4ccnc4)(c4ccc(Cl)cc4Cl)O3)cc2)CC1` [Entry 3h], the results for the MIC in series [1] and in series [2] were 800 nM (≈ 0.516 µg/mL) and 6250 nM (≈ 4.03 µg/mL), respectively.
For `N#CCS(=O)(=O)N1CCN(c2ccc(OC[C@@H]3CO[C@@](Cn4ccnc4)(c4ccc(Cl)cc4Cl)O3)cc2)CC1` [Entry 3g] the same measures were 250 nM (≈ 0.148 µg/mL) and 500 nM (≈ 0.296 µg/mL).
As for `C[C@@H]1[C@H](O)[C@@H](C)/C=C/C=C/C=C/C=C/C=C/C=C/C=C/[C@H](O[C@@H]2O[C@H](C)[C@@H](O)[C@H](N)[C@@H]2O)C[C@@H]2O[C@](O)(C[C@@H](O)C[C@@H](O)[C@H](O)CC[C@@H](O)C[C@@H](O)CC(=O)O[C@H]1C)C[C@H](O)[C@H]2C(=O)O` [Amphotericin B, reference compound], the MIC in series [1] (Candida albicans) and in series [2] (Nakaseomyces glabratus) was 250 nM (≈ 0.231 µg/mL) in each case.
As to `CCCS(=O)(=O)N1CCN(c2ccc(OC[C@@H]3CO[C@@](Cn4ccnc4)(c4ccc(Cl)cc4Cl)O3)cc2)CC1` [Entry 3c], the MIC in series [1] came to 125 nM (≈ 0.0744 µg/mL); in series [2] it was 500 nM (≈ 0.298 µg/mL). Also, the IC50 in series [3] is 75.6 nM.
